The values below come from paper PMC11267568 (2024).

Assay in all cases: in-line probing
Experiment [1] deals with 11-1 (RNA, aptamer) GGCUACCGCCGCUGGCUCUCGGGCGACUGUGCCUCGCGUGGAUAUGGCACGCGUAGAAGGGCACCGUAAAUGUCCUACUUGCGGUAGUCAUCCCGAUGGACACUGUCGGCGUAG
The note with it: 10 mM MgCl2, 50 mM KCl (1x of 2x buffer); 25 mM Tris-HCl pH 8.3 (1x), room temperature, ~48 h.

Experiment [2] concerns r10-2 (RNA, aptamer) GGACCUCGAGGCUACCGCAGCUGGCUCUCGGACGACUAUGCCUCGCGUGGAUAUGGCACGCGUAGAAGGGCACCGUAAAUGUCCUACUUGCGGUAGUCAUCCCGAUGGA
Conditions: 10 mM MgCl2, 50 mM KCl (1x of 2x buffer); 25 mM Tris-HCl pH 8.3 (1x), room temperature, ~48 h.

The test system of experiment [3] is r10-1C (RNA, aptamer) GGCUACCGCGGCUGGCUUCGGCCUCGCGUGGAUAUGGCACGCGUAGAAGGGCACCGUAAAUGUCCUACUUGCGGUAGUC
The note with it: 10 mM MgCl2, 50 mM KCl (1x of 2x buffer); 25 mM Tris-HCl pH 8.3 (1x), room temperature, ~48 h.

Experiment [4] deals with 11-1B (RNA, aptamer) GGCUACCGCCGCUGGCUCUCGGGCGACUGUGCCUCGCGUGGAUAUGGCACGCGUAGAAGGGCACCGUAAAUGUCCUACUUGCGGUAGUC
The note with it: 10 mM MgCl2, 50 mM KCl (1x of 2x buffer); 25 mM Tris-HCl pH 8.3 (1x), room temperature, ~48 h.

Experiment [5] relates to t14-4 (RNA, aptamer) GGCUGAUCUCCCAUCGGUAUGCCCUUCUGUGUGAAGGCGGUACUAAUGCCGGAGUGUAGAAACUGGAUAAUGCCAGUUAGUGGUAUGGAGAUACUACGACGCACGC
The note with it: 10 mM MgCl2, 50 mM KCl (1x of 2x buffer); 25 mM Tris-HCl pH 8.3 (1x), room temperature, ~48 h.

The subject of experiment [6] is r10-1N (RNA, aptamer) GGCCUCGCGUGGAUAUGGCACGCGUAGAAGGGCACCGUAAAUGUCCUA
The note with it: 10 mM MgCl2, 50 mM KCl (1x of 2x buffer); 25 mM Tris-HCl pH 8.3 (1x), room temperature, ~48 h.

The subject of experiment [7] is r10-1G (RNA, aptamer) GGCUGGCUUCGGCCUCGCGUGGAUAUGGCACGCGUAGAAGGGCACCGUAAAUGUCCUACUU
The note with it: 10 mM MgCl2, 50 mM KCl (1x of 2x buffer); 25 mM Tris-HCl pH 8.3 (1x), room temperature, ~48 h.

For experiment [8], the system named is r10-1C-M1 (RNA, aptamer) GGCUACCGCGGCUGGCUUCGGCCUCGCGUGGAUAUAACACGCGUAGAAGGGCACCGUAAAUGUCCUACUUGCGGUAGUC
The note with it: 10 mM MgCl2, 50 mM KCl (1x of 2x buffer); up to 10 μM branaplam; 25 mM Tris-HCl pH 8.3, room temperature.

Experiment [9] deals with r10-1 (RNA, aptamer) GGACCUCGAGGCUACCGCGGCUGGCUCUCGGACGACUAUGCCUCGCGUGGAUAUGGCACGCGUAGAAGGGCACCGUAAAUGUCCUACUUGCGGUAGUCAUCCCGAUGGA
Conditions: 10 mM MgCl2, 50 mM KCl (1x of 2x buffer); 25 mM Tris-HCl pH 8.3 (1x), room temperature, ~48 h.

For experiment [10], the system named is 11-19A (RNA, aptamer) GGCUACCGCCGCUGGGCUCUCGGGACGACACUGAGGGAACGCGUGGAUAUGGCACGCAACAGCGGGCACCGUAAAUGUCCUGGCGGUAGUC
Conditions: 10 mM MgCl2, 50 mM KCl (1x of 2x buffer); 25 mM Tris-HCl pH 8.3 (1x), room temperature, ~48 h.

Experiment [11] deals with r10-3 (RNA, aptamer) GGACCUCGAGGCUACCGCGGCUGGCUCUCGGACGACUGUGCCUCGCGUGGAUAUGGCACGCGUAGAAGGACACCGUAAAUGUCCUACUUGCGGUAGUCAUCCCGAUGGA
The note with it: 10 mM MgCl2, 50 mM KCl (1x of 2x buffer); 25 mM Tris-HCl pH 8.3 (1x), room temperature, ~48 h.

Experiment [12] has as its system r10-4 (RNA, aptamer) GGACCUCGAGGCUACCGCGGCUGGCUCUCGGACGACUAUGCCUCGCGUGGAUAUGGCACGCGUAGAAGGGCACCGUAAAUGCCCUACUUGCGGUAGUCAUCCCGAUGGA
The note with it: 10 mM MgCl2, 50 mM KCl (1x of 2x buffer); 25 mM Tris-HCl pH 8.3 (1x), room temperature, ~48 h.

Experiment [13] has as its system r10-1H (RNA, aptamer) GGCCUCGCGUGGAUAUGGCACGCGUAGAAGGGCACCGUAAAUGUCCUACUU
The note with it: 10 mM MgCl2, 50 mM KCl (1x of 2x buffer); 25 mM Tris-HCl pH 8.3 (1x), room temperature, ~48 h.

In experiment [14] the test system is 11-19 (RNA, aptamer) GGCUACCGCCGCUGGGCUCUCGGGACGACACUGAGGGAACGCGUGGAUAUGGCACGCAACAGCGGGCACCGUAAAUGUCCUGGCGGUAGUCGACCCGAUGGACACUGUCGGCGUAG
Conditions: 10 mM MgCl2, 50 mM KCl (1x of 2x buffer); 0.1 to 10 μM branaplam.

Broadly, the KD is the concentration at which binding is half-saturated. As to `CC1(C)CC(Oc2ccc(-c3ccc(-c4cn[nH]c4)cc3O)nn2)CC(C)(C)N1`, the KD in [1] amounted to 2440 ± 1030 nM; in [2], 623 ± 55 nM; in [3] it was 400 ± 43 nM; in experiment [4], 1170 ± 170 nM; in [5], 2270 ± 150 nM; in experiment [6], 150 ± 26 nM. Further, the KD came out at 352 ± 21 nM in experiment [7]; 420 ± 41 nM in [9]; 846 ± 127 nM in [10]; 964 ± 382 nM in experiment [11]; 634 ± 74 nM in [12]; 311 ± 19 nM in experiment [13]. Besides, the figures for the binding result in [8] and in [14] were “no” and “yes”, respectively.
